In patent US20230295164A1, “COMPOUNDS HAVING ANTIBACTERIAL ACTIVITY” (The Trustees of Princeton University, priority 2020, published 2023):
≈ marks a conversion by molar mass, not a printed value.

How the values were obtained:
P. aeruginosa PA14 = assay: MIC testing against P. aeruginosa PA14, same protocol; type: cell-based, Pseudomonas aeruginosa; conditions: according to the protocol above
Method: For each strain to be tested, made fresh streaks onto CAMHA from −80° C. glycerol stocks. • CAMHB: Dissolved 22 g of the powder per 1 L of purified water. Mixed well. Autoclaved at 121° C. for 10 minutes. Stored at room temperature (RT) for no more than 1 week. • Saline: Dissolved 9 g of the powder per 1 L of purified water. Mixed well. Autoclaved at 121° C. for 30 minutes. Stored at room temperature (RT) for no more than 1 week. Prepared the stock solutions of the tested compounds. For compounds: • a) Dispensed 20 ul compound to the wells in column 1, and 20 ul DMSO to the wells in column 2 to 12; • b) Diluted the compounds by transferring 10 ul compounds from column 1 to 20 ul DMSO in column 2; mix with pipette. • c) Repeated until column 11 to get 3×serial dilutions. Column 12 was the DMSO control. A multichannel pipette was used to deliver 1 μl of the diluted compound into each well of the corresponding daughter plate. Scraped 4-8 single colonies from an agar plate into 5 ml saline in a 14 ml Falcon conical tube. Vortexed the tube to suspend the bacteria. Adjusted the turbidity to ˜0.2 (corresponding to 0.5 McFarland) with an Ultrospec 10 Cell density meter. The strain suspension was diluted 200-fold in CAMHB medium and dispense into a sterile reservoir. A multichannel pipette was then used to deliver 99 μl of the diluted inocula into each well of the corresponding daughter plate. Incubate the daughter plates at 37° C., 85% humidity for 18-20 hr. […] A magnifying mirror device was used for ease of scoring the presence or absence of growth in the wells. 96-well micro-plates were photographed. […]

[1] = tested on: Staphylococcus aureus, NRS384; assay: MIC testing, broth microdilution in CAMHB; type: cell-based; conditions: 18-20 hr, lowest concentration that completely inhibits visible growth; for MIC: Staphylococcus aureus, NRS384, 37° C., read-out: Compound MICs, Staphylococcus aureus, NRS384; for Compound MICs, Staphylococcus aureus, NRS384: 37° C.
Method: (§1) Compounds 1-71 were subsequently tested to determine MICs of the compounds relative to the following five species/strains of bacteria: Staphylococcus aureus, NRS384; Enterococcus faecalis, ATCC 51575; Salmonella typhimurium, CMCC 50115; Escherichia coli, ATCC BAA-198; and Acinetobacter baumannii, ATCC 17978. MIC testing of compounds was conducted according to the following protocol.
(§2) For each strain to be tested, made fresh streaks onto CAMHA from −80° C. glycerol stocks.
(§3) • CAMHB: Dissolved 22 g of the powder per 1 L of purified water. Mixed well. Autoclaved at 121° C. for 10 minutes. Stored at room temperature (RT) for no more than 1 week. • Saline: Dissolved 9 g of the powder per 1 L of purified water. Mixed well. Autoclaved at 121° C. for 30 minutes. Stored at room temperature (RT) for no more than 1 week.
(§4) Prepared the stock solutions of the tested compounds.
(§5) For compounds: • a) Dispensed 20 ul compound to the wells in column 1, and 20 ul DMSO to the wells in column 2 to 12; • b) Diluted the compounds by transferring 10 ul compounds from column 1 to 20 ul DMSO in column 2; mix with pipette. • c) Repeated until column 11 to get 3×serial dilutions. Column 12 was the DMSO control.
(§6) A multichannel pipette was used to deliver 1 μl of the diluted compound into each well of the corresponding daughter plate.
(§7) Scraped 4-8 single colonies from an agar plate into 5 ml saline in a 14 ml Falcon conical tube. Vortexed the tube to suspend the bacteria. Adjusted the turbidity to ˜0.2 (corresponding to 0.5 McFarland) with an Ultrospec 10 Cell density meter.
(§8) The strain suspension was diluted 200-fold in CAMHB medium and dispense into a sterile reservoir. A multichannel pipette was then used to deliver 99 μl of the diluted inocula into each well of the corresponding daughter plate.
(§9) Incubate the daughter plates at 37° C., 85% humidity for 18-20 hr.
(§10) A magnifying mirror device was used for ease of scoring the presence or absence of growth in the wells. 96-well micro-plates were photographed.

[2] = tested on: Escherichia coli, ATCC BAA-198; assay: MIC testing, broth microdilution in CAMHB; type: cell-based; conditions: 18-20 hr, lowest concentration that completely inhibits visible growth; for MIC: Escherichia coli, ATCCBAA198, 37° C., read-out: Compound MICs, Escherichia coli, ATCC BAA-198; for Compound MICs, Escherichia coli, ATCC BAA-198: 37° C.
Method: as §1, §2, §3, §4, §5, §6, §7, §8, §9, §10

[3] = tested on: Enterococcus faecalis, ATCC 51575; assay: MIC testing, broth microdilution in CAMHB; type: cell-based; conditions: 18-20 hr, lowest concentration that completely inhibits visible growth; for MIC: Enterococcus faecalis, ATCC51575, 37° C., read-out: Compound MICs, Enterococcus faecalis, ATCC 51575; for Compound MICs, Enterococcus faecalis, ATCC 51575: 37° C.
Method: as §1, §2, §3, §4, §5, §6, §7, §8, §9, §10

[4] = tested on: Acinetobacter baumannii, ATCC 17978; assay: MIC testing, broth microdilution in CAMHB; type: cell-based; conditions: 18-20 hr, lowest concentration that completely inhibits visible growth; for MIC: Acinetobacter baumannii, ATCC17978, 37° C., read-out: Compound MICs, Acinetobacter baumannii, ATCC 17978; for Compound MICs, Acinetobacter baumannii, ATCC 17978: 37° C.
Method: as §1, §2, §3, §4, §5, §6, §7, §8, §9, §10

[5] = tested on: Salmonella typhimurium, CMCC 50115; assay: MIC testing, broth microdilution in CAMHB; type: cell-based; conditions: 37° C., 18-20 hr, lowest concentration that completely inhibits visible growth; for MIC: Salmonella enterica, read-out: Compound MICs, Salmonella typhimurium, CMCC 50115
Method: as §1, §2, §3, §4, §5, §6, §7, §8, §9, §10

Row | MIC (P. aeruginosa PA14; Pseudomonas aeruginosa, PA14, read-out: MICs against P. aeruginosa PA14) | MIC [1] | MIC [2] | MIC [3] | MIC [4] | MIC [5] | MICs against P. aeruginosa PA14 (P. aeruginosa PA14) | Compound MICs, Staphylococcus aureus, NRS384 [1] | Compound MICs, Escherichia coli, ATCC BAA-198 [2] | Compound MICs, Enterococcus faecalis, ATCC 51575 [3] | Compound MICs, Acinetobacter baumannii, ATCC 17978 [4] | Compound MICs, Salmonella typhimurium, CMCC 50115 [5] | Compound
1 | 25 µg/mL (≈ 81.3 µM) | 0.088 µg/mL (≈ 0.286 µM) | 2.37 µg/mL (≈ 7.71 µM) | 0.01 µg/mL (≈ 0.0325 µM) | 0.79 µg/mL (≈ 2.57 µM) | 0.088 µg/mL (≈ 0.286 µM) |  |  |  |  |  |  | Nc1nc(N)c2c(ccc3c2ccn3Cc2ccc(F)cc2)n1 [Compound 10]
2 |  |  |  |  |  |  | 45 µg/mL | 0.26 µg/mL | 7.11 µg/mL | 0.09 µg/mL | 2.37 µg/mL | 0.26 µg/mL | Nc1nc(N)c2c(ccc3c2ccn3-c2ccc(F)cc2)n1 [Compound 40]
3 |  |  |  |  |  |  | 6.3 µg/mL | 0.26 µg/mL | 7.11 µg/mL | 0.01 µg/mL | 2.37 µg/mL | 0.003 µg/mL | Nc1nc(N)c2c(ccc3c2ccn3Cc2ccc(F)nc2)n1 [Compound 45]
4 |  |  |  |  |  |  | 12.5 µg/mL | 0.09 µg/mL | 7.11 µg/mL | ≤0.001 µg/mL | 0.79 µg/mL | 0.003 µg/mL | Nc1nc(N)c2c(ccc3c2ccn3Cc2cccc(F)n2)n1 [Compound 48]
5 |  |  |  |  |  |  |  | 0.09 µg/mL | 7.11 µg/mL | 0.03 µg/mL | 7.11 µg/mL | 0.09 µg/mL | N#Cc1ccc(Cn2ccc3c4c(N)nc(N)nc4ccc32)s1 [Compound 57]
6 |  |  |  |  |  |  |  | 0.09 µg/mL | 7.11 µg/mL | 0.03 µg/mL | 2.37 µg/mL | 0.26 µg/mL | Nc1nc(N)c2c(ccc3c2ccn3Cc2ccc(-c3ccccc3)cn2)n1 [Compound 58]
7 |  |  |  |  |  |  |  | 0.26 µg/mL | 21.3 µg/mL | 0.03 µg/mL | 7.11 µg/mL | 0.26 µg/mL | CC(C)c1ccc(Cn2ccc3c4c(N)nc(N)nc4ccc32)nc1 [Compound 59]
8 |  |  |  |  |  |  |  | 0.79 µg/mL | 7.11 µg/mL | 0.09 µg/mL | 21.3 µg/mL | 0.79 µg/mL | Nc1nc(N)c2c(ccc3c2ccn3Cc2csc(C(F)(F)F)n2)n1 [Compound 60]
9 |  |  |  |  |  |  |  | 0.09 µg/mL | 7.11 µg/mL | 0.03 µg/mL | 7.11 µg/mL | 0.26 µg/mL | Nc1nc(N)c2c(ccc3c2ccn3Cc2ccc(-c3ccccn3)cc2)n1 [Compound 61]
10 |  |  |  |  |  |  |  | 0.79 µg/mL | 21.3 µg/mL | 0.003 µg/mL | 21.3 µg/mL | 0.26 µg/mL | C=C(Cn1ccc2c3c(N)nc(N)nc3ccc21)C(=O)OC [Compound 62]
11 |  | 0.26 µg/mL (≈ 0.812 µM) | 21.3 µg/mL (≈ 66.5 µM) | 0.09 µg/mL (≈ 0.281 µM) | 21.3 µg/mL (≈ 66.5 µM) | 0.26 µg/mL (≈ 0.812 µM) |  |  |  |  |  |  | COc1ccnc(Cn2ccc3c4c(N)nc(N)nc4ccc32)c1 [Compound 63]
12 |  |  |  |  |  |  |  | 7.11 µg/mL | 64 µg/mL | 21.3 µg/mL | >64 µg/mL | 64 µg/mL | Nc1nc(N)c2ccc(NCc3ccc(F)cc3)cc2n1 [Compound 64]
13 |  |  |  |  |  |  |  | 0.09 µg/mL | 7.11 µg/mL | 0.01 µg/mL | 7.11 µg/mL | 0.26 µg/mL | COc1ccc(Cn2ccc3c4c(N)nc(N)nc4ccc32)c(Cl)c1 [Compound 65]
14 |  |  |  |  |  |  |  | 0.09 µg/mL | 2.37 µg/mL | 0.01 µg/mL | 7.11 µg/mL | 0.26 µg/mL | COc1cc(Cn2ccc3c4c(N)nc(N)nc4ccc32)cc(OC)c1 [Compound 66]
15 |  |  |  |  |  |  |  | 0.09 µg/mL | 2.37 µg/mL | 0.01 µg/mL | 0.26 µg/mL | 0.26 µg/mL | COc1cccc(Cn2ccc3c4c(N)nc(N)nc4ccc32)n1 [Compound 67]
16 |  |  |  |  |  |  |  | 0.03 µg/mL | 2.37 µg/mL | 0.01 µg/mL | 2.37 µg/mL | 0.26 µg/mL | Nc1nc(N)c2c(ccc3c2ccn3Cc2cccc(Cl)c2Cl)n1 [Compound 68]
17 |  |  |  |  |  |  |  | 0.09 µg/mL | 2.37 µg/mL | 0.03 µg/mL | 7.11 µg/mL | 0.26 µg/mL | Nc1nc(N)c2c(ccc3c2ccn3Cc2ccc3c(c2)OCO3)n1 [Compound 69]
18 |  | 0.01 µg/mL (≈ 0.0251 µM) | 2.37 µg/mL (≈ 5.95 µM) | ≤ 0.001 µg/mL | 2.37 µg/mL (≈ 5.95 µM) | 0.26 µg/mL (≈ 0.653 µM) |  |  |  |  |  |  | COc1ccc(Br)cc1Cn1ccc2c3c(N)nc(N)nc3ccc21 [Compound 70]
19 |  | 0.03 µg/mL (≈ 0.0791 µM) | 2.37 µg/mL (≈ 6.25 µM) | 0.01 µg/mL (≈ 0.0264 µM) | 7.11 µg/mL (≈ 18.7 µM) | 0.79 µg/mL (≈ 2.08 µM) |  |  |  |  |  |  | COc1cc(Cn2ccc3c4c(N)nc(N)nc4ccc32)cc(OC)c1OC [Compound 71]
